SMILES strings stand for the structures.

The text below walks through data of publication PMC12700220, “Synthesis, photochemical and biological evaluation of novel photoswitchable glycomimetic ligands of Pseudomonas aeruginosa LecB” (RSC Advances, 2025).

Test [1] deals with T1, LecB (Pseudomonas aeruginosa, UniProt Q9HYN5). In words: (soak, […] Å) and ITC. In kind it is binding. The arrangement: N-terminal 6xHis-tagged LecB (homotetramer).
The target in test [2] is T1, LecB. In words: ITC after […] nm illumination. In kind it is binding. The arrangement: N-terminal 6xHis-tagged LecB.

T1 sequence (Q9HYN5 entry or part of it): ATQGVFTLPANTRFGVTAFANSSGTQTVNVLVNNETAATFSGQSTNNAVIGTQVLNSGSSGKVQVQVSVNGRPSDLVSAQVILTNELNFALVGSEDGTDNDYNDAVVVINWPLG

Consider `C[C@@H]1O[C@H](CNS(=O)(=O)c2ccc(/N=N/c3ccccc3)cc2)[C@@H](O)[C@H](O)[C@@H]1O` [photofucose-2, 4-((E)-phenyldiazenyl)-N-(((2R,3S,4R,5S,6S)-3,4,5-trihydroxy-6-methyltetrahydro-2H-pyran-2-yl)methyl)benzenesulfonamide], for which, in test [1], the Kd stood at 1.82 ± 0.408 µM.
Turning to `C[C@@H]1O[C@H](CNS(=O)(=O)c2ccc(/N=N\c3ccccc3)cc2)[C@@H](O)[C@H](O)[C@@H]1O` (mixture of isomers) [photofucose-2, cis-photofucose-2], binding in test [2] was characterised by a dissociation constant (Kd) of 4.71 ± 2.61 µM.
